# Test results as given in US20140011822A1, “METHODS AND MATERIALS FOR REDUCING VENOUS STENOSIS FORMATION OF AN ARTERIOVENOUS FISTULA OR GRAFT” (priority 2011, published 2014).
# Experiments:
# CTGF = test: RT-PCR for CTGF at outflow vein, simvastatin; assay type: in vivo, mice; conditions: day 14
# Description: (§1) Animals were housed at 22° C. temperature, 41% relative humidity, and 12-/12-hour light/dark cycles. Animals were allowed access to water and food ad libitum. […] Sixty-eight male C57BL/6 mice (Jackson Laboratories, Bar Harbor, Me.) weighing 25-30 grams were used for the present study (FIG. 18). Chronic kidney disease was created by surgical removal of the right kidney accompanied by ligation of the arterial blood supply to the upper pole of the left kidney as described elsewhere (Misra et al., J. Vasc. Interv. Radiol., 21:1255-1261 (2010); see, also, FIG. 18A). Three weeks after nephrectomy, the animals were started on simvastatin (40 mg/kg administered i.p. three times per week) or PBS (equal amount of volume used for simvastatin i.p. controls). Simvastatin was prepared as described elsewhere (Wilson et al., Arterioscler Thromb. Vasc. Biol., 21:122-128 (2001)). […] Serum BUN and creatinine were measured by removing blood from the tail vein at baseline (before nephrectomy), at AVF creation, and at the time of sacrifice. […]
# (§2) Expression for the gene of interest was determined using RT-PCR analysis as described elsewhere (Misra et al., J. Vasc. Interv. Radiol., 21:1255-1261 (2010)). […]
# [1] = system: hypoxic changes in the outflow vein; test: Hypoxyprobe staining of outflow vein, simvastatin; assay type: in vivo, mice; conditions: for average reduction of hypoxyprobe staining: vs control
# Description: Hypoxic changes were assessed in the outflow vein of simvastatin treated vessels or control groups using Hypoxyprobe™-1 (EMD Millipore, Billerica, Mass.), a substituted derivative of pimonidazole hydrochloride. Hypoxyprobe™-1 upon activation forms stable covalent adducts with thiol groups of polypeptides and amino acids of hypoxic tissue. Mice were injected with 60 mg/kg Hypoxyprobe™-1 i.p. Thirty minutes following injection, mice were sacrificed, and outflow veins were dissected and fixed as specified for histological analysis. Four-micrometer thick paraffin embedded sections were stained with the anti-hypoxyprobe-1 Ab as per the manufacturer's directions.
# NIH 3T3 cells [2] = test: Cell migration (matrigel invasion) assay in NIH 3T3 cells, simvastatin; assay type: cell-based
# Description: (§3) One hundred thousand NIH 3T3 cells were treated with simvastatin (1 μM, 5 μM, or 10 μM) or controls and made hypoxic for 24 hours as described elsewhere (Misra et al., J. Vasc. Interv. Radiol., 21:896-902 (2010)).
# NIH 3T3 cells were synchronized for 24 hours in serum free media. Next, one hundred thousand NIH 3T3 cells were treated with simvastatin or controls and seeded in 8-micron trans-wells that were pre-coated with low growth factor matrigel in a serum free media. The complete media was supplemented under the trans-well and incubated for 6 hours at 37° C. After 6 hours, trans-wells were washed with PBS and fixed with paraformaldehye (4% v/v). Finally, trans-wells were stained with bromophenol (0.1%) solution. The cells from upper side were removed with cotton tip applicators. The cells at bottom side were counted for analysis.
# VEGF-A [3] = test: RT-PCR for VEGF-A at outflow vein, simvastatin; assay type: in vivo, mice
# Description: (§4) Animals were housed at 22° C. temperature, 41% relative humidity, and 12-/12-hour light/dark cycles. Animals were allowed access to water and food ad libitum. […] Sixty-eight male C57BL/6 mice (Jackson Laboratories, Bar Harbor, Me.) weighing 25-30 grams were used for the present study (FIG. 18). Chronic kidney disease was created by surgical removal of the right kidney accompanied by ligation of the arterial blood supply to the upper pole of the left kidney as described elsewhere (Misra et al., J. Vasc. Interv. Radiol., 21:1255-1261 (2010); see, also, FIG. 18A). Three weeks after nephrectomy, the animals were started on simvastatin (40 mg/kg administered i.p. three times per week) or PBS (equal amount of volume used for simvastatin i.p. controls). Simvastatin was prepared as described elsewhere (Wilson et al., Arterioscler Thromb. Vasc. Biol., 21:122-128 (2001)). A week later, an AVF was created by connecting the right carotid artery to the ipsilateral jugular vein (FIG. 18B; see, also, Misra et al., J. Vasc. Interv. Radiol., 21:1255-1261 (2010) and Yang et al., J. Vasc. Interv. Radiol., 20:946-950 (2009)). Animals were sacrificed at day 7, day 14, and day 28 following AVF placement for real time polymerase chain reaction (RT-PCR) and histomorphometric analyses (FIG. 18C). Serum BUN and creatinine were measured by removing blood from the tail vein at baseline (before nephrectomy), at AVF creation, and at the time of sacrifice. […] These animals were started on simvastatin (40 mg/kg i.p.) or PBS (equal amount of volume i.p.) every other day one week before AVF placement and then sacrificed four weeks after fistula placement for histomorphometric analysis.
# (§5) The tissue was stored in RNA stabilizing reagent (Qiagen, Gaithersburg, Md.) as per the manufacturer's guidelines. To isolate the RNA, the specimens were homogenized, and total RNA was isolated using RNeasy mini kit (Qiagen) (Misra et al., J. Vasc. Interv. Radiol., 21:1255-1261 (2010); and Yang et al., J. Vasc. Interv. Radiol., 20:946-950 (2009)).
# (§6) Expression for the gene of interest was determined using RT-PCR analysis as described elsewhere (Misra et al., J. Vasc. Interv. Radiol., 21:1255-1261 (2010)). Commercial PCR primers for the gene of interest were purchased from SA Biosciences (Frederick, Md.).
# α-SMA = test: Confocal microscopy for α-SMA plus phalloidin in NIH 3T3 cells, simvastatin; assay type: cell-based
# Description: as §3
# caspase 3 = test: Caspase 3 activity in NIH 3T3 cells, simvastatin; assay type: cell-based; conditions: 24 hours hypoxia
# Description: as §3
# Apoptosis was assessed using an ELISA assay for caspase 3. Cellular protein was extracted from one hundred thousand cultured cells as described elsewhere (Misra et al., J. Vasc. Interv. Radiol., 21:896-902 (2010)). The enzymatic activity of caspase 3 was accessed by Caspase Glo assay (G811C, Promega, Madison, Wis.).
# [4] = system: apoptosis at the outflow vein; test: TUNEL staining of outflow vein, simvastatin; assay type: in vivo, mice; conditions: for average increase of TUNEL staining: vs control
# Description: TUNEL staining was performed on paraffin-embedded sections from the outflow vein after treatment with either simvastatin or controls as specified by the manufacturer (DeadEnd Colorimetric tunnel assay system, G7360, Promega, Madison, Wis.).
# Morphometric analysis was performed as described elsewhere (Misra et al., Kidney Int., 68:2890-2900 (2005); and Misra et al., Am. J. Physiol. Heart Circ. Physiol., 294:H2219-2230 (2008)). Briefly, the outflow vein was sectioned into multiple contiguous 4-μm paraffin embedded sections. Typically, 2 to 3 sections per animal for each group (simvastatin and controls) and time point (day 14 and day 28) were photographed and then quantified using KS 400 (Carl Zeiss, Inc., Thornwood, N.Y.) semiquantitative program.
# VEGF-A [5] = test: RT-PCR for VEGF-A in kidneys, simvastatin; assay type: in vivo, mice
# Description: as §1, §2
# MMP-9 [6] = test: RT-PCR for MMP-9 in kidneys, simvastatin; assay type: in vivo, mice
# Description: as §4, §5, §6
# MMP-9 [7] = test: RT-PCR for MMP-9 at outflow vein, simvastatin; assay type: in vivo, mice
# Description: as §4, §5, §6
# NIH 3T3 cells [8] = test: Proliferation (thymidine incorporation) assay in NIH 3T3 cells, simvastatin; assay type: cell-based
# Description: as §3
# One hundred thousand NIH 3T3 cells were treated with simvastatin or controls and made hypoxic for 24 hours. Next, they were seeded in a 6-well plate and cultured for 24 hours in DMEM medium. After 20 hours, […] of (^3H) thymidine was added to each well. Four hours later, the cells were washed with chilled PBS, fixed with 100% cold methanol, and collected for measurement of trichloroacetic acid-precipitable for radioactivity. Experiments were repeated three times for each time point.
structure (smiles),measurement,setting,value
CCC(C)(C)C(=O)O[C@H]1C[C@@H](C)C=C2C=C[C@H](C)[C@H](CC[C@@H]3C[C@@H](O)CC(=O)O3)[C@H]21 [simvastatin],mean gene expression of CTGF,CTGF,0.29±0.05
same,average reduction of CTGF gene expression,CTGF; vs control,45%
same,average density of hypoxyprobe staining,[1]; day 14,18.33±2.06
same,average reduction of hypoxyprobe staining,[1]; day 14,53%
same,average density of hypoxyprobe staining,[1]; day 28,13.01±4.62
same,average reduction of hypoxyprobe staining,[1]; day 28,70%
same,reduction of hypoxyprobe staining,"[1]; day 28 normal, vs control (P=0.0103)",72%
same,average reduction of migratory capacity,"NIH 3T3 cells [2]; 5 μM, 24 hours hypoxia",47%
same,average reduction of migratory capacity,"NIH 3T3 cells [2]; 5 μM, 24 hours normoxia",32%
same,average reduction of migratory capacity,"NIH 3T3 cells [2]; 10 μM, 24 hours hypoxia",62%
same,average reduction of migratory capacity,"NIH 3T3 cells [2]; 10 μM, 24 hours normoxia",50%
same,mean gene expression of VEGF-A,VEGF-A [3]; day 7,0.58±0.06
same,Average reduction of VEGF-A gene expression,"VEGF-A [3]; day 7, vs control",44%
same,mean gene expression of VEGF-A,VEGF-A [3]; day 14,0.51±0.1
same,Average reduction of VEGF-A gene expression,"VEGF-A [3]; day 14, vs control",49%
same,average reduction in α-SMA plus phalloidin staining,"α-SMA; 5 μM, 24 hours of hypoxia",52%
same,average reduction in α-SMA plus phalloidin staining,"α-SMA; 5 μM, 24 hours of normoxia",62%
same,average reduction in α-SMA plus phalloidin staining,"α-SMA; 10 μM, 24 hours of hypoxia",82%
same,average reduction in α-SMA plus phalloidin staining,"α-SMA; 10 μM, 24 hours of normoxia",94%
same,average increase in caspase 3 activity,caspase 3; 5 μM,281%
same,average increase in caspase 3 activity,caspase 3; 10 μM,1103%
same,average density of cells staining positive for TUNEL,[4]; day 14,25.26±2.78
same,average increase of TUNEL staining,[4]; day 14,366%
same,average density of cells staining positive for TUNEL,[4]; day 28,30.17±1.8
same,average increase of TUNEL staining,[4]; day 28,561%
same,increase of TUNEL staining,"[4]; day 28 normal, vs control (P=0.0136)",326%
same,average gene expression of VEGF-A,VEGF-A [5]; day 28,1±0.02
same,Average reduction of VEGF-A gene expression,"VEGF-A [5]; day 28, vs control",24%
same,average gene expression of MMP-9,MMP-9 [6]; day 7,0.42±0.13
same,Average reduction of MMP-9 gene expression,"MMP-9 [6]; day 7, vs control",57%
same,average gene expression of MMP-9,MMP-9 [6]; day 28,0.64±0.09
same,Average reduction of MMP-9 gene expression,"MMP-9 [6]; day 28, vs control",44%
same,average gene expression of MMP-9,MMP-9 [7]; day 7,0.19±0.03
same,Average reduction of MMP-9 gene expression,"MMP-9 [7]; day 7, vs control",69%
same,average gene expression of MMP-9,MMP-9 [7]; day 14,0.37±0.02
same,Average reduction of MMP-9 gene expression,"MMP-9 [7]; day 14, vs control",41%
same,average reduction in proliferative ability,"NIH 3T3 cells [8]; 5 μM, 24 hours hypoxia",83%
same,average reduction in proliferative ability,"NIH 3T3 cells [8]; 5 μM, 24 hours normoxia",75%
same,average reduction in proliferative ability,"NIH 3T3 cells [8]; 10 μM, 24 hours hypoxia",92%
same,average reduction in proliferative ability,"NIH 3T3 cells [8]; 10 μM, 24 hours normoxia",94%
